From patent US9828339B2, “Biphenyl derivatives and methods for preparing same” (DONG-A ST CO., LTD, priority 2013, dated 2017)

Molecular target: human muscarinic M3 receptor (Homo sapiens (Human), UniProt P20309)
Test: Binding assay on human muscarinic M3 receptor ([3H]-methyl scopolamine displacement)
Details: membranes overexpressing human M3 receptor, Ki from IC50 by Cheng-Prusoff, read-out: Binding Affinity to M3 Receptor, Ki
Procedure: [Experimental Example 1] Binding Assay on Human Muscarinic M3 Receptor
Cell membrane proteins (Perkin Elmer) wherein human muscarinic M3 receptor was overexpressed, [^3H]-methyl scopolamine and test compounds in various concentration were cultured in 0.2 ml of Tris-HCl buffer at 25° C. for 120 minutes. The same was filtered under suction through glass fiber filter (Whatman GF/B), and then the filter was washed 5 times with 1 ml of Tris-HCl buffer. The radioactivity of [^3H]-methyl scopolamine adsorbed on the filter was measured by a liquid scintillation counter. Non-specific binding was evaluated under existence of 5 μM of atropine. Affinity of the compound of the present invention to muscarinic M3 receptor was calculated as the dissociation constant (Ki), which can be calculated from concentration (IC50) of test compounds inhibiting 50% of binding of [^3H]-methyl scopolamine (i.e. labeled ligand) according to Cheng and Prusoff [Cheng and Prusoff, Biochem. Pharmacol., 22, 3099, 1973].

Sequence of human muscarinic M3 receptor (P20309 whole entry): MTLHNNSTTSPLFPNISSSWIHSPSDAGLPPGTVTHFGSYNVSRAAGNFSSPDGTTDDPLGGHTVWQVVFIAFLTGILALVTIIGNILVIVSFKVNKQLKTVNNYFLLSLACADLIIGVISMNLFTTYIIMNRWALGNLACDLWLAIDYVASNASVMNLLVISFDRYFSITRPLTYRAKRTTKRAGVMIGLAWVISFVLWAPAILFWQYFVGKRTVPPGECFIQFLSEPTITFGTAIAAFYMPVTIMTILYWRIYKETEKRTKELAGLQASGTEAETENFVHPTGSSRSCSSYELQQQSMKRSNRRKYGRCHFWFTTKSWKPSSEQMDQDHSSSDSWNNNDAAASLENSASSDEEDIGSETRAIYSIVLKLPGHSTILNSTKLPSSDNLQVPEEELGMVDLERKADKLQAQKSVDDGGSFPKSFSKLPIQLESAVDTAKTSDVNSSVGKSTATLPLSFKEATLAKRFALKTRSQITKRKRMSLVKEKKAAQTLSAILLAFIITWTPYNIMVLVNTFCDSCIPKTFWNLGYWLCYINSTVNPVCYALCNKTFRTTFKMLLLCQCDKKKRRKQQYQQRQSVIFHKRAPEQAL

| SMILES | Ki |
| --- | --- |
| CCN1CC[C@H](COC(=O)Nc2ccccc2-c2ccccc2)C1 [Example 103, (S)-(1-ethylpyrrolidin-3-yl)methyl [1,1′-biphenyl]-2-ylcarbamate] | 0.013 µM |
| CCN1CC[C@@H](COC(=O)Nc2ccccc2-c2cccc(C)c2)C1 [Example 104, (R)-(1-ethylpyrrolidin-3-yl)methyl (3′-methyl-[1,1′-biphenyl]-2-yl)carbamate] | 0.0142 µM |
| CCN1CC[C@H](COC(=O)Nc2ccccc2-c2cccc(C)c2)C1 [Example 105, (S)-(1-ethylpyrrolidin-3-yl)methyl (3′-methyl-[1,1′-biphenyl]-2-yl)carbamate] | 0.0196 µM |
| CC(C)CN1CCC[C@H]1COC(=O)Nc1ccccc1-c1ccccc1 [Example 107, (S)-(1-isobutylpyrrolidin-2-yl)-methyl [1,1′-biphenyl]-2-ylcarbamate] | 0.752 µM |
| Cc1cccc(-c2ccccc2NC(=O)OC[C@H]2CCCN2C)c1 [Example 110, (R)-(1-methylpyrrolidin-2-yl)-methyl (3′-methyl-[1,1′-biphenyl]-2-yl)carbamate] | 0.00913 µM |
| Cc1cccc(-c2cc(F)ccc2NC(=O)OC[C@H]2CCCN2C)c1 [Example 111, (R)-(1-methylpyrrolidin-2-yl)-methyl (5-fluoro-3′-methyl-[1,1′-biphenyl]-2-yl)carbamate] | 0.0108 µM |
| CN1CC[C@@H](COC(=O)Nc2ccccc2-c2cccc(F)c2)C1 [Example 113, (R)-(1-methylpyrrolidin-3-yl)-methyl (3′-fluoro-[1,1′-biphenyl]-2-yl)carbamate] | 0.00192 µM |
| CN1CC[C@H](COC(=O)Nc2ccccc2-c2cc(Cl)cc(Cl)c2)C1 [Example 119, (S)-(1-methylpyrrolidin-3-yl)methyl(3′,5′-dichloro-[1,1′-biphenyl]-2-yl)carbamate] | 0.0423 µM |
| Cc1cc(C)cc(-c2cc(F)ccc2NC(=O)OC[C@H]2CCN(C)C2)c1 [Example 122, (S)-(1-methylpyrrolidin-3-yl)methyl(5-fluoro-3′,5′-dimethyl-[1,1′-biphenyl]-2-yl)carbamate] | 0.0878 µM |
| CN1CC[C@H](COC(=O)Nc2ccc(F)cc2-c2cc(O)cc(Cl)c2)C1 [Example 123, (S)-(1-methylpyrrolidin-3-yl)methyl(3′-chloro-5-fluoro-5′-hydroxy-[1,1′-biphenyl]-2-yl)carbamate] | 0.0528 µM |
| CN1CC[C@H](COC(=O)Nc2ccc(F)cc2-c2ccc(Cl)cc2)C1 [Example 127, (S)-(1-methylpyrrolidin-3-yl)methyl(4′-chloro-5-fluoro-[1,1′-biphenyl]-2-yl)carbamate] | 0.0694 µM |
| CN1CC[C@@H](COC(=O)Nc2ccc(F)cc2-c2cccc(N)c2)C1 [Example 133, (R)-(1-methylpyrrolidin-3-yl)methyl(5-fluoro-3′-amino-[1,1′-biphenyl]-2-yl)carbamate] | 0.0345 µM |
| CN1CC[C@@H](COC(=O)Nc2ccc(F)cc2-c2cc(O)cc(Cl)c2)C1 [Example 134, (R)-(1-methylpyrrolidin-3-yl)methyl(3′-chloro-5-fluoro-5′-hydroxy-[1,1′-biphenyl]-2-yl)carbamate] | 0.0469 µM |
| CN1CC[C@@H](COC(=O)Nc2ccccc2-c2cccc(O)c2)C1 [Example 137, (R)-(1-methylpyrrolidin-3-yl)methyl(3′-hydroxy-[1,1′-biphenyl]-2-yl)carbamate] | 0.027 µM |
| CN1CC[C@@H](COC(=O)Nc2ccccc2-c2cc(Cl)cc(C(F)(F)F)c2)C1 [Example 138, (R)-(1-methylpyrrolidin-3-yl)methyl(3′-chloro-5′-(trifluoromethyl)-[1,1′-biphenyl]-2-yl)carbamate] | > 1 µM |
| COc1cc(Cl)cc(-c2cc(F)ccc2NC(=O)OC[C@@H]2CCN(C)C2)c1 [Example 139, (R)-(1-methylpyrrolidin-3-yl)methyl(3′-chloro-5-fluoro-5′-methoxy-[1,1′-biphenyl]-2-yl)carbamate] | 0.0827 µM |
| CN1CC[C@@H](COC(=O)Nc2ccc(F)cc2-c2cc(Cl)cc(C(F)(F)F)c2)C1 [Example 140, (R)-(1-methylpyrrolidin-3-yl)methyl(3′-chloro-5-fluoro-5′-(trifluoromethyl)-[1,1′-biphenyl]-2-yl)carbamate] | > 1 µM |
| COc1ccc(NC(=O)OC[C@@H]2CCN(C)C2)c(-c2ccc(F)c(Cl)c2)c1 [Example 147, (R)-(1-methylpyrrolidin-3-yl)methyl(3′-chloro-4′-fluoro-5-methoxy-[1,1′-biphenyl]-2-yl)carbamate] | 0.0774 µM |
| CN1CC[C@@H](COC(=O)Nc2ccccc2-c2cccc(CO)c2)C1 [Example 152, (R)-(1-methylpyrrolidin-3-yl)-methyl (3′-(hydroxymethyl)-[1,1′-biphenyl]-2-yl)carbamate] | 0.147 µM |
| CN1CC[C@@H](COC(=O)Nc2ccccc2-c2cccc(C(N)=O)c2)C1 [Example 153, (R)-(1-methylpyrrolidin-3-yl)methyl(3′-carbamoyl-[1,1′-biphenyl]-2-yl)carbamate] | > 1 µM |
| CN1CCC[C@H]1COC(=O)Nc1ccc(F)cc1-c1ccc(Cl)cc1Cl [Example 176, (S)-(1-methylpyrrolidin-2-yl)methyl (2′,4′-dichloro-5-fluoro-[1,1′-biphenyl]-2-yl)carbamate] | > 1 µM |
| CN1CCC[C@H]1COC(=O)Nc1ccc(F)cc1-c1cccc(C#N)c1 [Example 178, (S)-(1-methylpyrrolidin-2-yl)methyl (3′-cyano-5-fluoro-[1,1′-biphenyl]-2-yl)carbamate] | > 1 µM |

Other lines, results leading:

| Ki | SMILES |
| --- | --- |
| 0.0167 µM | CN1CC[C@@H](COC(=O)Nc2ccccc2-c2cccc(N)c2)C1 [Example 154, (R)-(1-methylpyrrolidin-3-yl)methyl(3′-amino-[1,1′-biphenyl]-2-yl)carbamate] |
| > 1 µM | CN1CC[C@@H](COC(=O)Nc2ccccc2-c2cccc(C#N)c2)C1 [Example 155, (R)-(1-methylpyrrolidin-3-yl)methyl(3′-cyano-[1,1′-biphenyl]-2-yl)carbamate] |
| 0.12 µM | CN1CC[C@@H](COC(=O)Nc2ccccc2-c2cccc(F)c2F)C1 [Example 158, (R)-(1-methylpyrrolidin-3-yl)methyl(2′,3′-difluoro-[1,1′-biphenyl]-2-yl)carbamate] |
| 0.00892 µM | CN1CCC[C@H]1COC(=O)Nc1ccccc1-c1cc(F)cc(F)c1 [Example 161, (S)-(1-methylpyrrolidin-2-yl)methyl(3′,5′-difluoro-[1,1′-biphenyl]-2-yl)carbamate] |
| 0.00534 µM | CN1CCC[C@H]1COC(=O)Nc1ccccc1-c1ccc(F)c(F)c1 [Example 162, (S)-(1-methylpyrrolidin-2-yl)methyl(3′,4′-difluoro-[1,1′-biphenyl]-2-yl)carbamate] |
| 0.0161 µM | CN1CCC[C@H]1COC(=O)Nc1ccccc1-c1cc(F)c(F)cc1F [Example 163, (S)-(1-methylpyrrolidin-2-yl)methyl (2′,4′,5′-trifluoro-[1,1′-biphenyl]-2-yl)carbamate] |
| 0.0369 µM | CN1CCC[C@H]1COC(=O)Nc1ccccc1-c1ccc(Cl)cc1 [Example 164, (S)-(1-methylpyrrolidin-2-yl)methyl(4′-chloro-[1,1′-biphenyl]-2-yl)carbamate] |
| 0.0673 µM | CN1CCC[C@H]1COC(=O)Nc1ccccc1-c1ccc(Cl)cc1Cl [Example 167, (S)-(1-methylpyrrolidin-2-yl)methyl(2′,4′-dichloro-[1,1′-biphenyl]-2-yl)carbamate] |
| 0.0229 µM | CN1CCC[C@H]1COC(=O)Nc1ccccc1-c1cccc(O)c1 [Example 168, (S)-(1-methylpyrrolidin-2-yl)methyl(3′-hydroxy-[1,1′-biphenyl]-2-yl)carbamate] |
| 0.282 µM | CN1CCC[C@H]1COC(=O)Nc1ccccc1-c1cccc(C#N)c1 [Example 169, (S)-(1-methylpyrrolidin-2-yl)methyl(3′-cyano-[1,1′-biphenyl]-2-yl)carbamate] |
| 0.00923 µM | CN1CCC[C@H]1COC(=O)Nc1ccccc1-c1cccc(N)c1 [Example 170, (S)-(1-methylpyrrolidin-2-yl)methyl(3′-amino-[1,1′-biphenyl]-2-yl)carbamate] |
| 0.0169 µM | CN1CCC[C@H]1COC(=O)Nc1ccc(F)cc1-c1ccc(F)c(F)c1 [Example 171, (S)-(1-methylpyrrolidin-2-yl)methyl (3′,4′,5-trifluoro-[1,1′-biphenyl]-2-yl)carbamate] |
| 0.0427 µM | CN1CCC[C@H]1COC(=O)Nc1ccc(F)cc1-c1cc(F)c(F)cc1F [Example 173, (S)-(1-methylpyrrolidin-2-yl)methyl (2′,4′,5,5′-tetrafluoro-[1,1′-biphenyl]-2-yl)carbamate] |
| 0.00061 µM | CN1CCC[C@H]1COC(=O)Nc1ccc(F)cc1-c1cccc(Cl)c1 [Example 174, (S)-(1-methylpyrrolidin-2-yl)methyl(3′-chloro-5-fluoro-[1,1′-biphenyl]-2-yl)carbamate] |
| 0.0225 µM | CN1CCC[C@H]1COC(=O)Nc1ccc(F)cc1-c1ccc(Cl)cc1 [Example 175, (S)-(1-methylpyrrolidin-2-yl)methyl (4′-chloro-5-fluoro-[1,1′-biphenyl]-2-yl)carbamate] |
| 0.241 µM | CN1CCC[C@H]1COC(=O)Nc1ccc(F)cc1-c1cccc(O)c1 [Example 179, (S)-(1-methylpyrrolidin-2-yl)methyl(3′-hydroxy-5-fluoro-[1,1′-biphenyl]-2-yl)carbamate] |
| > 1 µM | CN1CC[C@@H](COC(=O)Nc2cc(F)c(F)cc2-c2cccc(Cl)c2)C1 [Example 182, (R)-(1-methylpyrrolidin-3-yl)methyl (3′-chloro-4,5-difluoro-[1,1′-biphenyl]-2-yl)carbamate] |
